Measured values reported in patent US20210238197A1, “NOVEL OXOQUINOLIZINE COMPOUNDS FOR THE TREATMENT AND PROPHYLAXIS OF BACTERIAL INFECTION” (Hoffmann-La Roche Inc., priority 2018, published 2021).
In brackets after ≈: the same amount, converted by molar mass. Read-outs that look alike come from different tables or passages of the source.

Columns and labels:
S. aureus (ATCC29213) = experiment: 50% growth inhibitory concentration (IC50) determination assay, S. aureus; type: cell-based; conditions: Iso-Sensitest broth, growth by OD 600 nm over 16 h, <0.098 = detection limit
Summary of the method: (§1)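 Compounds two-fold diluted from 50 to 0.097 μM (final) in Iso-Sensitest broth, inoculum ~5×10^5 CFU/mL. Incubation at 35±2 °C with OD600 read every 20 min over 16 h to track growth.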

HepG2 cells = experiment: Cytotoxicity assay (HepG2, CellTiter-Blue); type: cell-based
Summary of the method: (§2)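 HepG2 cells exposed to compounds for 3 days. Viability read on day 3 by CellTiter-Blue fluorescence after 3 h at 37° C. CC50 obtained from a four-parameter logistic fit.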

[1] = system: K. pneumoniae (ATCC10031); experiment: 50% growth inhibitory concentration (IC50) determination assay, K. pneumoniae; type: cell-based; conditions: Iso-Sensitest broth, growth by OD 600 nm over 16 h, <0.098 = detection limit
Summary of the method: as §1

A. baumannii (ATCC17978) = experiment: 50% growth inhibitory concentration (IC50) determination assay, A. baumannii; type: cell-based; conditions: Iso-Sensitest broth, growth by OD 600 nm over 16 h, <0.098 = detection limit
Summary of the method: as §1

[2] = system: multiple species and strains; experiment: microbe, parasite or virus in culture; set-up: MIC S9 / MIC S7 / MIC S11 / MIC S8 / MIC S10: unit not given beside the values
Summary of the method: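 Broth microdilution per CLSI M07-A10 in CAMHB, CAMHB+3% lysed horse blood or HTM. Inoculum was set to OD600 ~0.1, then diluted 1:280 (Gram-positive) or 1:400 (Gram-negative), and plates were incubated 18-24 h at 35±2° C in ambient air. MIC (μg/mL) is the lowest concentration giving no visible growth.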

[3] = Cytotoxicity assay (HepG2, CellTiter-Blue); type: cell-based; conditions: human; HepG2 cells, 3 days treatment; >100 = detection limit
Summary of the method: as §2

[4] = Lyophilisation solubility assay (LYSA); type: physicochemical; conditions: aqueous buffer, thermodynamic from solid; 0.05 M phosphate buffer, pH 6.5; <1.0 = detection limit
Procedure: The solubility of compounds of present invention was assessed by LYSA assay. Samples were prepared in duplicate from 10 mM DMSO stock solutions (20 μL) diluted in 30 μL pure DMSO. After evaporation of DMSO with a centrifugal vacuum evaporator, the residue was dissolved in 0.05 M phosphate buffer (150 μL, pH 6.5), which was stirred for one hour and shook for two hours. After one night, the solution was filtered using a microtiter filter plate. Then the filtrate and its 1/10 dilution were analyzed by HPLC-UV. In addition a four-point calibration curve was prepared from the 10 mM stock solutions and used for the solubility determination of the compounds.

[5] = Single dose PK study (SDPK) in female CD-1 mouse; type: in vivo; conditions: IV bolus, 1.0 mg/kg solution; for clearance: plasma, read-out: CL total
Procedure: The single dose PK in female CD-1 mouse was performed to assess compound's pharmacokinetic properties. One group of animals were dosed via bolus intravenous (IV) of the respective compound. Blood samples (approximately 30 μL) were collected via saphenous vein at 5 mins, 15 min, 30 min, 1 hr, 2 hr, 4 hr and 7 hr. For last time point (24 hr), samples were collected via cardiac puncture while the mouse was under anesthesia. Blood samples were placed into tubes containing EDTA-K2 anticoagulant (2 μL of 0.5M per tube) and centrifuged at 3000 rpm for 10 minutes at 4° C. within half an hour to separate plasma from the samples. Following centrifugation, plasma samples were stored in polypropylene tubes, quick frozen over dry ice and kept at −70±10° C. until LC/MS/MS analysis. The pharmacokinetic parameters were calculated using non-compartmental module of WinNonlin® Professional 6.4.

[6] = Staphylococcus aureus, ATCC29213
[7] = Klebsiella pneumoniae, ATCC10031
[8] = Acinetobacter baumannii, ATCC17978
[9] = Acinetobacter baumannii, ATCC19606, read-out: MIC S1, A. baumannii ATCC 19606
[10] = Acinetobacter baumannii, ATCC51432, read-out: MIC S2, A. baumannii ATCC 51432
[11] = Acinetobacter baumannii, ATCCBAA747, read-out: MIC S3, A. baumannii ATCC BAA-747
[12] = Escherichia coli, ATCC25922, read-out: MIC S11, E. coli ATCC 25922
[13] = Escherichia coli, ATCCBAA2340, read-out: MIC S10, E. coli ATCC BAA-2340
[14] = Klebsiella pneumoniae, ATCC10031, read-out: MIC S4, K. pneumoniae ATCC 10031
[15] = Klebsiella pneumoniae, ATCC700603, read-out: MIC S5, K. pneumoniae ATCC 700603
[16] = Klebsiella pneumoniae, ATCCBAA2146, read-out: MIC S6, K. pneumoniae ATCC BAA-2146
[17] = Pseudomonas aeruginosa, ATCC27853, read-out: MIC S7, P. aeruginosa ATCC 27853
[18] = Pseudomonas aeruginosa, ATCCBAA2113, read-out: MIC S8, P. aeruginosa ATCC BAA-2113

| Molecule | IC50 (S. aureus (ATCC29213); [6]) [nM] | CC50 at 3 days [3] [nM] | IC50 [1, 7] [nM] | IC50 (A. baumannii (ATCC17978); [8]) [nM] | solubility thermodynamic [4] [µg/mL] | AUC total [5] [ng·h/mL] | clearance [5] [mL/min/kg] | MIC [2, 9] [µg/mL] | MIC [2, 10] [µg/mL] | MIC [2, 11] [µg/mL] | MIC S9 ([2]; E. coli ATCC 35218) | MIC [2, 12] [µg/mL] | MIC [2, 13] [µg/mL] | MIC [2, 14] [µg/mL] | MIC [2, 15] [µg/mL] | MIC [2, 16] [µg/mL] | MIC [2, 17] [µg/mL] | MIC [2, 18] [µg/mL] | also measured |
| --- | --- | --- | --- | --- | --- | --- | --- | --- | --- | --- | --- | --- | --- | --- | --- | --- | --- | --- | --- |
| 7-(5-cyano-4-(cis-(4R)-4 (dimethylamino)-3,3a,4,5,6,6a-hexahydro-1H-cyclopenta[c]pyrrol-2-yl)-6-fluoro-8-(methylamino)-9H-pyrido[2,3-b]indol-3-yl)-4-oxo-4H-quinolizine-3-carboxylic acid [Example 1.12] | – | – | – | – | – | – | – | – | – | – | – | – | – | – | – | – | – | – | IC50 (S. aureus (ATCC29213)): < 98 nM; CC50 (HepG2 cells): > 100000 nM; IC50 [1]: < 98 nM; IC50 (A. baumannii (ATCC17978)): < 98 nM; MIC S9 [2]: 0.541; MIC S1 ([2]; A. baumannii ATCC 19606): 1.082; MIC S2 ([2]; A. baumannii ATCC 51432): 0.541; MIC S3 ([2]; A. baumannii ATCC BAA-747): 0.541; MIC S11 ([2]; E. coli ATCC 25922): 0.203; MIC S10 ([2]; E. coli ATCC BAA-2340): 0.541; MIC S4 ([2]; K. pneumoniae ATCC 10031): 0.068; MIC S5 ([2]; K. pneumoniae ATCC 700603): 2.168; MIC S6 ([2]; K. pneumoniae ATCC BAA-2146): 4.335; MIC S7 ([2]; P. aeruginosa ATCC 27853): 1.082; MIC S8 ([2]; P. aeruginosa ATCC BAA-2113): 2.168 |
| CNc1cc(F)c(F)c2c1[nH]c1ncc(-c3ccc4c(CN(C)C)cc(C(=O)O)c(=O)n4c3)c(N3CC[C@H]4CN(C)C[C@H]43)c12 (relative stereo) [Example 2.03, 7-[4-[cis-5-methyl-2,3,3a,4,6,6a-hexahydropyrrolo[2,3-c]pyrrol-1-yl]-5,6-difluoro-8-(methylamino)-9H-pyrido[2,3-b]indol-3-yl]-1-[(dimethylamino)methyl]-4-oxo-quinolizine-3-carboxylic acid] | 194 | 46400 | < 98 | < 98 | > 1060 | – | – | – | – | – | – | – | – | – | – | – | – | – | – |
| CNc1cc(F)c(F)c2c1[nH]c1ncc(-c3ccc4c(CN5CCOCC5)cc(C(=O)O)c(=O)n4c3)c(N3CC[C@H]4CN(C)C[C@H]43)c12 (relative stereo) [Example 2.09, 7-[4-[cis-5-methyl-2,3,3a,4,6,6a-hexahydropyrrolo[2,3-c]pyrrol-1-yl]-5,6-difluoro-8-(methylamino)-9H-pyrido[2,3-b]indol-3-yl]-1-(morpholinomethyl)-4-oxo-quinolizine-3-carboxylic acid] | 174 | 86900 | < 98 | < 98 | 795 (≈ 1240 µM) | – | – | – | – | – | – | – | – | – | – | – | – | – | – |
| CNc1cc(F)cc2c1[nH]c1ncc(-c3ccc4ccc(C(=O)O)c(=O)n4c3)c(N3CC[C@H]4CN(C)C[C@H]43)c12 (single isomer, unassigned) [Example 3.02A] | 102 | 41300 | < 98 | < 98 | 559 (≈ 1060 µM) | – | – | – | – | – | – | – | – | – | – | – | – | – | – |
| CNc1cc(F)c(F)c2c1[nH]c1ncc(-c3ccc4ccc(C(=O)O)c(=O)n4c3)c(N3CCC4CN(C)C[C@@H]43)c12 (stereo in doubt) [Example 1.03, 7-[5,6-difluoro-4-(cis-5-methyl-2,3,3a,4,6,6a-hexahydropyrrolo[2,3-c]pyrrol-1-yl)-8-(methylamino)-9H-pyrido[2,3-b]indol-3-yl]-4-oxo-quinolizine-3-carboxylic acid] | < 98 | 21900 | < 98 | < 98 | 134 (≈ 246 µM) | 374.7 | 39.1 | 0.26 (≈ 0.477 µM) | 0.26 (≈ 0.477 µM) | 0.13 (≈ 0.239 µM) | 0.510 | 0.193 (≈ 0.354 µM) | 2.06 (≈ 3.78 µM) | 0.03 (≈ 0.0551 µM) | 4.12 (≈ 7.57 µM) | 2.06 (≈ 3.78 µM) | 1.03 (≈ 1.89 µM) | 2.06 (≈ 3.78 µM) | – |
| CNc1cc(F)c(F)c2c1[nH]c1ncc(-c3ccc4ccc(C(=O)O)c(=O)n4c3)c(N3CC[C@H]4CN(C)C[C@H]43)c12 [Example 1.04, 7-[4-[(3aS,6aS)-5-methyl-2,3,3a,4,6,6a-hexahydropyrrolo[2,3-c]pyrrol-1-yl]-5,6-difluoro-8-(methylamino)-9H-pyrido[2,3-b]indol-3-yl]-4-oxo-quinolizine-3-carboxylic acid] | < 98 | 15000 | < 98 | < 98 | 460 (≈ 845 µM) | 256 | 64.1 | 0.128 (≈ 0.235 µM) | 0.128 (≈ 0.235 µM) | 0.128 (≈ 0.235 µM) | 0.128 | 0.048 (≈ 0.0881 µM) | 0.258 (≈ 0.474 µM) | 0.032 (≈ 0.0588 µM) | 1.03 (≈ 1.89 µM) | 1.03 (≈ 1.89 µM) | 0.514 (≈ 0.944 µM) | 2.06 (≈ 3.78 µM) | – |
| CNc1cc(F)c(C#N)c2c1[nH]c1ncc(-c3ccc4ccc(C(=O)O)c(=O)n4c3)c(N3CC[C@H]4CN(C)C[C@H]43)c12 [Example 1.14, 7-[4-[(3aS,6aS)-5-methyl-2,3,3a,4,6,6a-hexahydropyrrolo[2,3-c]pyrrol-1-yl]-5-cyano-6-fluoro-8-(methylamino)-9H-pyrido[2,3-b]indol-3-yl]-4-oxo-quinolizine-3-carboxylic acid] | < 98 | 15300 | < 98 | < 98 | – | 214 | 78.7 | 0.108 (≈ 0.196 µM) | 0.215 (≈ 0.39 µM) | 0.215 (≈ 0.39 µM) | 0.108 | 0.04 (≈ 0.0725 µM) | 0.215 (≈ 0.39 µM) | 0.027 (≈ 0.049 µM) | 1.72 (≈ 3.13 µM) | 0.86 (≈ 1.56 µM) | 0.86 (≈ 1.56 µM) | 1.72 (≈ 3.13 µM) | – |
| CNc1cc(F)c(Cl)c2c1[nH]c1ncc(-c3ccc4ccc(C(=O)O)c(=O)n4c3)c(N3CC[C@]4(C[C@@H]4N)C3)c12 [Example 5.01D, 7-(4-((1S,3S)-1-amino-5-azaspiro[2.4]heptan-5-yl)-5-chloro-6-fluoro-8-(methylamino)-9H-pyrido[2,3-b]indol-3-yl)-4-oxo-4H-quinolizine-3-carboxylic acid] | < 98 | > 100000 | < 98 | < 98 | – | 180 | 93 | – | – | – | – | – | – | – | – | – | – | – | – |
| CNc1cc(F)cc2c1[nH]c1nc(Oc3cnc(C)nc3)nc(N3C[C@H]4C[C@@H]3C[C@H]4N)c12 [GP-6, reference compound] | < 98 | 5600 | < 98 | < 98 | < 1 | 126.2 | 132 | 0.339 (≈ 0.78 µM) | 0.339 (≈ 0.78 µM) | 0.169 (≈ 0.389 µM) | 0.169 | 0.127 (≈ 0.292 µM) | 1.36 (≈ 3.13 µM) | < 0.021 | 1.36 (≈ 3.13 µM) | 2.71 (≈ 6.25 µM) | 0.678 (≈ 1.56 µM) | 1.36 (≈ 3.13 µM) | – |
